In US4452985A, “2-Guanyl-4-(substituted phenyl) thiazole derivatives” (American Home Products Corporation, priority 1983, dated 1984):
Structures can show the parent of a compound that is named as a salt. Where two headings read alike, the source gives them in different places. Blank lines part the entries; values can stand above or below the compound they belong to.

Key:
gastric acid secretion = assay: Gastric secretion in the pylorus-ligated rat (modified Shay procedure); assay type: in vivo; conditions: intraduodenal, 4 hours after ligation, read-out: % Inhibition of acid output; for inhibition in vivo at 16 mg/kg: 16 mg/kg i.d.; for inhibition in vivo at 32 mg/kg: 32 mg/kg i.d.; for inhibition in vivo at 4 mg/kg: 4 mg/kg i.d.
Procedure: The procedure for testing gastric secretion in the rat, a modification of the procedure of Shay et al., Gastroenterology, 26, 906-13 (1954) is carried out as follows:
Male Charles River rats weighing 200-300 grams are deprived of food but not water for 24 hours prior to use. Water is, however, withheld during the experiment. The rats are weighed, anesthetized, and the pylorus ligated according to the method of Shay et al. Treatment or vehicle control is then administered interduodenally (i.d.). Rats are housed 2/cage and sacrificed with CO2 four hours after ligation. The stomachs are removed, rinsed, and contents emptied into a graduated centrifuge tube. The tubes are centrifuged for 20 minutes at 2,000 RPM and the volume of gastric juice recorded. Any samples obviously contaminated by feces, food or hemolysis are eliminated. An aliquot of each is frozen for later analysis of Na^+, K^+ and Cl^- concentration. The pH is measured and 1 ml. of gastric juice is titrated with 0.1 N NaOH to a pH of 7.0-7.4. Titratable acid output is calculated in microequivalents and the percent inhibition of acid output is calculated as follows: [formula]

H2 histamine receptors [1] = molecular target: T1, H2 histamine receptors (Cavia porcellus, UniProt P47747); assay: Guinea pig heart (spontaneously beating right atrium) test: antagonism of histamine-induced positive chronotropic response; assay type: cell-based; conditions: 30 min preincubation, 32 °C, pH 7.4
T1 construct: from tissue; host or cells: guinea pig right atrium (spontaneously beating)
T1 sequence (P47747 whole entry): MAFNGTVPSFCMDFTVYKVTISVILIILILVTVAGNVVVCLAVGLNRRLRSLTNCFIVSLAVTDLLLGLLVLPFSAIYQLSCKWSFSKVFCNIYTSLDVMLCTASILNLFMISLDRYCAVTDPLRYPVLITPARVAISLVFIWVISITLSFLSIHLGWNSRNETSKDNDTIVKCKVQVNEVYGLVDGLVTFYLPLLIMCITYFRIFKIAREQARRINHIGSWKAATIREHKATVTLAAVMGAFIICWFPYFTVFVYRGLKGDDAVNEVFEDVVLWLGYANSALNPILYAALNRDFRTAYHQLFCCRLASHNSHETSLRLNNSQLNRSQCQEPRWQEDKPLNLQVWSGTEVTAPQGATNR
Procedure: The guinea pig heart atrium test is carried out as follows:
A guinea pig right atrium is suspended at 1 g. tension (isometric) in a thermostatically controlled (32° C.) tissue bath (10 ml.) containing oxygenated (95% O2; 5% CO2) Krebs-Haenseleit buffer (pH 7.4). The tissue is allowed to stabilize over 1 hour. Individual contractions are recorded with a force-displacement transducer through a strain gauge coupler. A control dose-response curve to histamine in the above described tissue bath is obtained after which the tissue is washed 3 times and allowed to re-equilibrate to basal rate. The test compound is added to the tissue bath at the desired final concentration. Thirty minutes after addition of the compound, a fresh histamine dose response curve is again obtained. Then the response to histamine in the presence of antagonist is compared to the histamine control response. This procedure is repeated, using fresh tissues, for each concentration of antagonist tested.

[2] = cited from earlier work
H2 histamine receptors [3] = conditions: cited from earlier work
[4] = histamine dose-response, three experiments, read-out: pA2 Value (apparent dissociation constant of the H2 antagonist) (converted)
[5] = values marked *: result of only one experiment, read-out: pKB value (converted)

SMILES: N#Cc1ccc(-c2csc(NC(=N)N)n2)cc1 [Example 1, [4-(4-Cyanophenyl)-2-Thiazolyl]Guanidine, Hydrobromide]
inhibition in vivo at 16 mg/kg (gastric acid secretion): 50%

Kb (H2 histamine receptors [1]; [4]): 63.1 nM
SMILES: N=C(N)Nc1nc(-c2cccc(C(N)=NOC(N)=O)c2)cs1 [Example 6, N-[(Aminocarbonyl)oxy]-3-[2-[(Aminoiminomethyl)Amino]-4-Thiazolyl]Benzenecarboximidamide, Hydrochloride, Hemihydrate]

SMILES: N=C(N)Nc1nc(-c2cccc(-c3noc(C(F)(F)F)n3)c2)cs1 [Example 8, [4-[3-[5-(Trifluoromethyl)-1,2,4-Oxadiazol-3-yl]Phenyl]-2-Thiazoyl]Guanidine, Hydrochloride]
inhibition in vivo at 32 mg/kg (gastric acid secretion): 84%

Kb (H2 histamine receptors [1]; [4]): 39.8 nM
SMILES: CC(=O)ON=C(N)c1cccc(-c2csc(NC(=N)N)n2)c1 [Example 7, N-(Acetyloxy)-3-[[2-[(Aminoiminomethyl)Amino]-4-Thiazolyl]Benzenecarboximidamide, Dihydrochloride]

Kb (H2 histamine receptors [1]; [5]): 50.1 nM
SMILES: N=C(N)Nc1nc(-c2cccc(C(N)=O)c2)cs1 [Example 11, 3-[2-[(Aminoiminomethyl)Amino]-4-Thiazolyl]Benzenecarboxamide, Hydrobromide]

pKB value (H2 histamine receptors [1]; values marked *: result of only one experiment): 6.1
SMILES: N=C(N)Nc1nc(-c2cccc(C(=O)O)c2)cs1 [Example 4, 3-[2-[(Aminoiminomethyl)Amino]-4-Thiazolyl]Benzoic Acid, Hydrochloride]

Kb (H2 histamine receptors [1]; [4]): 5.01 nM
SMILES: N=C(N)Nc1nc(-c2cccc(C(=N)N)c2)cs1 [Example 9, 3-[2-[(Aminoiminomethyl)Amino]-4-Thiazolyl]Benzenecarboximidamide, Dihydrobromide, Hemiethanolate]
inhibition in vivo at 32 mg/kg (gastric acid secretion): 55%

SMILES: CN/C(=N/CCSCc1nc[nH]c1C)NC#N [Cimetidine]
tendency to cause confusional states ([2]; elderly patients): tendency to cause confusional states in elderly patients
anti-androgenic activity ([2]; patients): anti-androgenic activity
duration of action ([2]; patients): short duration of action

Kb (H2 histamine receptors [1]; [4]): 50.1 nM
SMILES: N=C(N)Nc1nc(-c2cccc(C(N)=NO)c2)cs1 [Example 5, 3-[2-[(Aminoiminomethyl)Amino]-4-Thiazolyl]-N-Hydroxybenzenecarboximidamide, Dihydrochloride]
inhibition in vivo at 32 mg/kg (gastric acid secretion): 68%

Kb (H2 histamine receptors [1]; [4]): 251 nM
SMILES: N#Cc1cccc(-c2csc(NC(=N)N)n2)c1 [Example 3, [4-(3-Cyanophenyl)-2-Thiazolyl]Guanidine, Hydrobromide, Hydrate]
inhibition in vivo at 4 mg/kg (gastric acid secretion): 40%

Kb (H2 histamine receptors [1]; [5]): 6.31 nM
SMILES: CN=C(N)c1cccc(-c2csc(NC(=N)N)n2)c1 [Example 12, 3-[2-[(Aminoiminomethyl)Amino]-4-Thiazolyl]-N-Methylbenzenecarboximidamide,Quarter Hydrate]
inhibition in vivo at 16 mg/kg (gastric acid secretion): 75%

SMILES: CCOC(=N)c1cccc(-c2csc(NC(=N)N)n2)c1 [Example 10, 3-[2-[(Aminoiminomethyl)Amino]-4-Thiazolyl]Benzenecarboximidic Acid Ethyl Ester]
inhibition in vivo at 4 mg/kg (gastric acid secretion): 41%

SMILES: CNC(=NC#N)NCCSCc1csc(N=C(N)N)n1 [tiotidine]
H2 antagonist activity relative to cimetidine (in words) (H2 histamine receptors [3]): greater activity than cimetidine

Kb (H2 histamine receptors [1]; [5]): 79.4 nM
SMILES: N=C(N)Nc1nc(-c2cccc(C(=O)NN)c2)cs1 [Example 13, 3-[2-[(Aminoiminomethyl)Amino]-4-Thiazolyl]Benzoic Acid Hydrazide, Hydrochloride]

SMILES: N#CCc1ccc(-c2csc(NC(=N)N)n2)cc1 [Example 2, [4-[4-(Cyanomethyl)Phenyl]-2-Thiazolyl]Guanidine, Hydrobromide]
inhibition in vivo at 32 mg/kg (gastric acid secretion): 79%
